# Literature values, collected in patent US6884908B2, “Process for isolation of hepatoprotective agent “oleanolic acid” from Lantana camera” (Council of Scientific & Industrial Research, priority 2003, dated 2005).
# Tests used:
# [1] = test system: experimental hyperlipidemic rats; settings: 50 mg/kg, P.O. for 9 days
# [2] = test system: paw edema produced by dextran; settings: rats and mice
# [3] = test system: adjuvant induced arthritis; settings: rats and mice
# [4] = test system: azoxymethane-induced intestinal tumor; settings: rats, 200 ppm in diet for 3 weeks
# [5] = test system: CCl4-induced liver parenchymal cell necrosis, steatosis and degeneration; settings: in vivo
smiles,measurement,setting,value
"CC1(C)CC[C@]2(C(=O)O)CC[C@]3(C)C(=CC[C@@H]4[C@@]5(C)CC[C@H](O)C(C)(C)[C@@H]5CC[C@]43C)[C@@H]2C1 [oleanolic acid, (3-O-β-hydroxy-olea-12-en-28-oic acid]",decrease of elevated blood cholesterol level,[1],more than 40%
same,decrease of elevated β-lipoprotein level,[1],more than 40%
same,paw edema produced by dextran,[2],inhibiting
same,adjuvant induced arthritis,[3],suppressing
same,incidence and multiplicity of azoxymethane-induced intestinal tumor,[4],decreases the incidence and multiplicity
same,"CCl4-induced liver parenchymal cell necrosis, steatosis and degeneration",[5],decreases
